According to patent US8951972B2, “FGFR1 extracellular domain combination therapies for lung cancer” (Five Prime Therapeutics, Inc., priority 2010, dated 2015):

Experiments:
Type in all cases: in vivo, SCID mice
[1] = system: H520 Non-Small Cell Lung Cancer (NSCLC) Xenograft; test: H520 non-small cell lung cancer (NSCLC) xenograft model, tumor volume
Description: Dosing for all groups began one day post tumor implantation.
In combination groups, FGFR1-ECD.339-Fc and pemetrexed were administered on the same schedule as when given as single agents, and were administered concurrently on days 1, 4, 8, and 11.

[2] = system: Colo205 Colon Cancer Xenograft; test: Colo205 colon cancer xenograft model, tumor volume; details: day 17; FGFR1-ECD.339-Fc 15 mg/kg i.p. 2x/wk x 4 wks; 5-FU and leucovorin 10 mg/kg each i.p. daily x 5 days; oxaliplatin 15 mg/kg twice per week
[3] = system: A549 Non-Small Cell Lung Cancer (NSCLC) Xenograft; test: A549 non-small cell lung cancer (NSCLC) xenograft model, tumor volume
Description: Six weeks old female SCID mice were purchased from Charles River Laboratories (Wilmington, Mass.) and were acclimated for 1 week before the start of the study. […] The cells were implanted subcutaneously over the right flank of the mice at 5×10^6 cells/100 μl/mouse. One day after tumor implantation, mice were randomized according to body weight at 10 mice per group.
The tumor volume and body weight of the mice were monitored twice a week throughout each study.
The tumor volume of each group of mice at the end of each study was analyzed by one-way ANOVA followed by Tukey's test.
Cisplatin was purchased from Sigma-Aldrich (St. Louis, Mo.; Cat. No. P4394), formulated in 0.9% saline, and administered i.p. at 3.5 mg/kg ([…]) once per week for six weeks. Saline was used as negative control and was administered i.p. at 100 μl per mouse twice a week for six weeks.
On day 42, when the average tumor volume in the vehicle group reached 1300 mm^3, the mice were euthanized by isoflurane inhalation and cervical dislocation.
FGFR1-ECD.339-Fc was formulated in 0.9% Saline for Injection USP at 3 mg/ml. […] FGFR1-ECD.339-Fc was administered intraperitoneally (i.p.) at 15 mg/kg twice per week for 5 weeks. Paclitaxel was administered i.p. at 18 mg/kg on days 8, 12, and 15.
When the average tumor volume in vehicle control group reached ˜500 mm^3, the mice were euthanized by isoflurane inhalation and cervical dislocation.
FGFR1-ECD.339-Fc was formulated in 0.9% Saline for Injection USP at 3 mg/ml. 5-FU was purchased from Sigma-Aldrich (St. Louis, Mo.; Cat. No. F6627) and was initially dissolved in dimethyl sulfoxide (DMSO, Sigma-Aldrich, St. Louis, Mo.; Cat. No. D8418-50) at the concentration of 50 mg/ml as a stock solution. The stock solution was further diluted in 0.9% Sodium Chloride Injection USP to 6.6 mg/ml (for 33 mg/kg dosing). FGFR1-ECD.339-Fc was administered intraperitoneally (i.p.) at 15 mg/kg twice per week for four weeks. 5-FU was administered i.p. at 33 mg/kg twice a week for three weeks.
Mice were euthanized on day 31 by isoflurane inhalation and cervical dislocation.
FGFR1-ECD.339-Fc was formulated in PBS at 3 mg/ml and administered intraperitoneally (i.p.) at 15 mg/kg (300 μg/100 μl/mouse) twice a week for four weeks. Docetaxel was administered i.p. at 3 mg/kg or 10 mg/kg twice per week for four weeks.
Mice in the albumin control group were euthanized on day 32 by isoflurane inhalation and cervical dislocation when the average tumor volume in the group reached 1000 mm^3.

[4] = system: A549 Non-Small Cell Lung Cancer (NSCLC) Xenograft; test: as above; details: day 28; FGFR1-ECD.339-Fc 15 mg/kg and carboplatin 25 mg/kg i.p. 2x/wk from day 7 x 3 wks; paclitaxel 30 mg/kg i.p. 2x/wk from day 8 x 3 wks
[5] = day 49, FGFR1-ECD.339-Fc alone 15 mg/kg i.p. 2x/wk x 6 wks
[6] = day 42, FGFR1-ECD.339-Fc 20 mg/kg i.p. 2x/wk x 6 wks, cisplatin 3.5 mg/kg i.p. 1x/wk x 6 wks

For “FGFR1-ECD.339-Fc: human FGFR1 extracellular domain ending at amino acid 339 fused to an Fc; SEQ ID NO: 6 (mature form)”, the “Tumor inhibition over the course of the study (mean tumor volume)” value ([1]; FIGS. 2A, 3A, 4A, FGFR1-ECD.339-Fc 15 mg/kg, pemetrexed alone at the low or medium dose (62.5 or 125 mg/kg), combination dosed concurrently) was “resulted in tumor inhibition”, the “Fractional tumor volume (FTV), each treatment alone” value ([1]; day 49, FGFR1-ECD.339-Fc 15 mg/kg, pemetrexed 62.5 mg/kg) was 0.68 and the “Fractional tumor volume (FTV), each treatment alone” value ([1]; day 49, FGFR1-ECD.339-Fc 15 mg/kg, pemetrexed 125 mg/kg) was 0.68. For the same substance, the “Fractional tumor volume (FTV), each treatment alone” value ([1]; day 49, FGFR1-ECD.339-Fc 15 mg/kg, pemetrexed 250 mg/kg) was 0.68, the “Mean Tumor volume mm^3(±SD)” value [1, 5] was 630.4 (±461.5) mm^3 and the “Tumor growth inhibition (%)” value [1, 5] was 31%. For the same substance, the “Fractional tumor volume (FTV), each treatment alone” value [2] was 0.77, the “Fractional tumor volume (FTV), each treatment alone” value ([3]; day 31, FGFR1-ECD.339-Fc 15 mg/kg i.p. 2x/wk x 4 wks, 5-FU 33 mg/kg i.p. 2x/wk x 3 wks) was 0.84 and the “Fractional tumor volume (FTV), each treatment alone” value ([3]; day 31, FGFR1-ECD.339-Fc 15 mg/kg i.p. 2x/wk x 5 wks, paclitaxel 18 mg/kg i.p. days 8, 12, 15) was 0.84. For the same substance, the “Fractional tumor volume (FTV), each treatment alone” value ([3]; day 32, FGFR1-ECD.339-Fc 15 mg/kg i.p. 2x/wk x 4 wks, docetaxel 3 mg/kg i.p. 2x/wk x 4 wks) was 0.54, the “Fractional tumor volume (FTV), each treatment alone” value ([3]; day 32, FGFR1-ECD.339-Fc 15 mg/kg i.p. 2x/wk x 4 wks, docetaxel 10 mg/kg i.p. 2x/wk x 4 wks) was 0.54 and the “Fractional tumor volume (FTV), each treatment alone” value ([3]; day 38, FGFR1-ECD.339-Fc 15 mg/kg i.p. 2x/wk x 5 wks, paclitaxel 18 mg/kg i.p. days 8, 12, 15) was 0.89. For the same substance, the “Fractional tumor volume (FTV), each treatment alone” value ([3]; day 39, FGFR1-ECD.339-Fc 15 mg/kg i.p. 2x/wk (start day 1), vincristine 1 mg/kg i.p. days 8, 15, 22) was 0.50, the “Mean Tumor volume mm^3(±SD)” value [3, 6] was 807 (±431) mm^3 and the “Tumor growth inhibition (%)” value [3, 6] was 39%. For the same substance, the “Fractional tumor volume (FTV) relative to control, each treatment alone” value ([3]; day 42, FGFR1-ECD.339-Fc 20 mg/kg, cisplatin 3.5 mg/kg) was 0.60, the “Fractional tumor volume (FTV), each treatment alone” value ([3]; day 46, FGFR1-ECD.339-Fc 15 mg/kg i.p. 2x/wk (start day 1), vincristine 1 mg/kg i.p. days 8, 15, 22) was 0.40 and the “Fractional tumor volume (FTV), each treatment alone” value ([3]; day 70, FGFR1-ECD.339-Fc 20 mg/kg i.p. 2x/wk (start day 19), vincristine 1.5 mg/kg i.p. days 27, 34, 41) was 0.71. For the same substance, the “Fractional tumor volume (FTV), each treatment alone” value [4] was 0.58.
